Data reported in PubChem BioAssay (NCI).
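Interpolation was linear, between the two tested concentrations surrounding the appropriate level; five concentrations were tested over 48 hours in 96-well plates. At the TGI there is no net growth.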

How the values were obtained:
Assay in all cases: NCI tumour cell line growth inhibition, 48 h
SNB-75 CNS = system: SNB-75 CNS
DLD-1 colon = system: DLD-1 colon
OVCAR-8 ovarian = system: OVCAR-8 ovarian
UACC-62 melanoma = system: UACC-62 melanoma
SF-539 CNS = system: SF-539 CNS
OVCAR-5 ovarian = system: OVCAR-5 ovarian
SNB-78 CNS = system: SNB-78 CNS
SF-268 CNS = system: SF-268 CNS
SNB-19 CNS = system: SNB-19 CNS
XF 498 CNS = system: XF 498 CNS
786-0 renal = system: 786-0 renal
OVCAR-4 ovarian = system: OVCAR-4 ovarian
M14 melanoma = system: M14 melanoma
HL-60(TB) leukemia = system: HL-60(TB) leukemia
A549 NSCLC = system: A549 NSCLC
COLO 205 colon = system: COLO 205 colon
SK-OV-3 ovarian = system: SK-OV-3 ovarian
RPMI-8226 leukemia = system: RPMI-8226 leukemia
HT29 colon = system: HT29 colon
M19-MEL melanoma = system: M19-MEL melanoma
OVCAR-3 ovarian = system: OVCAR-3 ovarian
MALME-3M melanoma = system: MALME-3M melanoma
HCT-15 colon = system: HCT-15 colon
EKVX NSCLC = system: EKVX NSCLC
K-562 leukemia = system: K-562 leukemia
NCI-H522 lung = system: NCI-H522 lung
CCRF-CEM leukemia = system: CCRF-CEM leukemia
SK-MEL-2 melanoma = system: SK-MEL-2 melanoma
KM12 colon = system: KM12 colon
SF-295 CNS = system: SF-295 CNS
SR leukemia = system: SR leukemia
UO-31 renal = system: UO-31 renal
U251 CNS = system: U251 CNS
UACC-257 melanoma = system: UACC-257 melanoma
SW-620 colon = system: SW-620 colon
MOLT-4 leukemia = system: MOLT-4 leukemia
SK-MEL-28 melanoma = system: SK-MEL-28 melanoma
HOP-92 NSCLC = system: HOP-92 NSCLC
CAKI-1 renal = system: CAKI-1 renal
DMS 114 small cell lung = system: DMS 114 small cell lung
IGROV1 ovarian = system: IGROV1 ovarian
ACHN renal = system: ACHN renal
LOX IMVI melanoma = system: LOX IMVI melanoma
KM20L2 colon = system: KM20L2 colon
HCT-116 colon = system: HCT-116 colon
TK-10 renal = system: TK-10 renal
RXF 393 renal = system: RXF 393 renal
LXFL 529 NSCLC = system: LXFL 529 NSCLC
SK-MEL-5 melanoma = system: SK-MEL-5 melanoma
A498 renal = system: A498 renal
SN12C renal = system: SN12C renal
HOP-62 NSCLC = system: HOP-62 NSCLC
NCI-H460 lung = system: NCI-H460 lung
NCI-H226 lung = system: NCI-H226 lung
DMS 273 small cell lung = system: DMS 273 small cell lung
HCC-2998 colon = system: HCC-2998 colon
NCI-H23 lung = system: NCI-H23 lung
HOP-18 NSCLC = system: HOP-18 NSCLC

Measured: TGI

N#Cc1cn(-c2c3ccccc3nc3ccccc23)c(=O)[nH]c1=O
32.2 µM: KM20L2 colon
25 µM: UO-31 renal
90.7 µM: SNB-19 CNS
38.1 µM: EKVX NSCLC
24.6 µM: SR leukemia
79.5 µM: KM12 colon
13.5 µM: 786-0 renal
7.71 µM: SF-539 CNS
35.4 µM: DMS 114 small cell lung
71.8 µM: IGROV1 ovarian
29.7 µM: SF-268 CNS
22.6 µM: MOLT-4 leukemia
24.9 µM: SK-MEL-2 melanoma
23.8 µM: SF-295 CNS
25.2 µM: XF 498 CNS
18.3 µM: NCI-H522 lung
20.4 µM: OVCAR-4 ovarian
23.1 µM: HOP-92 NSCLC
49.8 µM: SNB-78 CNS
24 µM: A549 NSCLC
34.8 µM: ACHN renal
31.9 µM: HCT-15 colon
38 µM: SW-620 colon
35.6 µM: OVCAR-3 ovarian
64.3 µM: COLO 205 colon
45.6 µM: CAKI-1 renal
27.7 µM: UACC-257 melanoma
> 100 µM: DLD-1 colon | HCT-116 colon | TK-10 renal
32.9 µM: OVCAR-5 ovarian
23.3 µM: K-562 leukemia
41.7 µM: CCRF-CEM leukemia
24.3 µM: MALME-3M melanoma
75.8 µM: RPMI-8226 leukemia
71 µM: U251 CNS
28.5 µM: M14 melanoma | HT29 colon
27.6 µM: OVCAR-8 ovarian
33.3 µM: SNB-75 CNS
31.4 µM: SK-MEL-28 melanoma
38.8 µM: UACC-62 melanoma
33.1 µM: SK-OV-3 ovarian
21.2 µM: LOX IMVI melanoma
46.1 µM: M19-MEL melanoma
30.6 µM: HL-60(TB) leukemia

O=C(NC1C(=O)NNC1c1ccccc1Cl)c1ccccc1 (stereo not drawn)
not listed: SNB-78 CNS
> 100 µM: all other assays above

O=C1CC[C@@H](NC(=O)Cc2ccccc2)C(=O)N1
not listed: SNB-78 CNS | HL-60(TB) leukemia | HCT-15 colon | DMS 114 small cell lung | RXF 393 renal
> 100 µM: all other assays above

COC(=O)/C(=N/NC(C)(C)C)C(C(=O)OC)C(=O)C(=O)Nc1nc2ccc([N+](=O)[O-])cc2s1 (stereo not drawn)
not listed: SNB-75 CNS | DLD-1 colon | HOP-92 NSCLC | RXF 393 renal | DMS 273 small cell lung | HOP-18 NSCLC
> 100 µM: all other assays above
